Values of other authors as cited in patent US20170000799A1, “ORAL PHARMACEUTICAL COMPOSITION” (LABORATORIOS DEL DR. ESTEVE, S.A., priority 2013, published 2017).

Conditions: many organic solvents, including ethanol

solubility in organic solvents: low solubility
Compound: O=C(NC[C@H]1CN(c2ccc(N3CCOCC3=O)cc2)C(=O)O1)c1ccc(Cl)s1 [Rivaroxaban, 5-Cloro-N-[2-oxo-3-[4-(3-oxomorpholin-4-yl)phenyl]-1,3-oxazolidin-5(S)-ylmethyl]-thiophene-2-carboxamide]
